Here are results for five compounds from article PMC5071857, “A unique peptide deformylase platform to rationally design and challenge novel active compounds” (Scientific Reports, 2016).

The term IC50 denotes the point on the concentration scale where inhibition reaches its midpoint. Usually MIC stands for the least concentration at which growth counts as inhibited.

SMILES strings stand for the structures. Where two headings read alike, the source gives them in different places.

In assay [1] the target is T1, EcPDF (Escherichia coli, UniProt P0A6K3).
T1 construct: made in house
In words: PDF inhibition, formate dehydrogenase-coupled spectrophotometric assay (EcPDF). It is filed as biochemical. Conditions: for EcPDF KI/KI*app: enhancement potency (slow tight-binding).

Assay [2] relates to S. aureus SA113. In words: MIC, S. aureus SA113. Type of assay: cell-based. Conditions: Staphylococcus aureus. The gist of the method: (§1)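 Broth microdilution in Mueller-Hinton II, inoculum 2 × 10^5 cfu per well, two-fold serial dilutions, 37 °C; kanamycin-supplemented growth for acrAB-/tolC- derivatives. Tested alone or equimolar combinations, with or without PMBN at 51.2 mg/L. MIC in μg/mL, mean of three independent assays.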

Assay [3] concerns B. subtilis 168. The assay is described as follows: MIC, B. subtilis 168. Type of assay: cell-based. Conditions: Bacillus subtilis. From the text:
Two E. coli strains, one B. subtilis strain, one S. aureus strain, one E. faecalis strain, one S. agalactiae strain and three Enterobacter aerogenes strains previously described were used. Briefly, AG100 was an E. coli wild type strain and AG100A its acrAB^- derivative. EA289 was a Kan^s derivative of an E. aerogenes multi-drug resistant (MDR) clinical isolate overexpressing AcrAB-TolC efflux pumps, and EA294 and EA298 its acrAB^- and tolC^- derivatives respectively. Strains were routinely grown at 37 °C on Luria-Bertani (LB) agar or in Mueller-Hinton II broth (MH), supplemented with kanamycine (50 μg.mL^−1) for AG100A, EA294 and EA298.
MIC values of antibiotics were determined by the microdilution method in liquid MH media in microplates in the absence or presence of chemosensitizers/modulators (e.g. PMBN, PAβN), as previously described. Permeabilization, blocking of efflux pumps, and isolates with different levels of porin or efflux expression were used to assess the involvement of the membrane barrier in antibiotic activity.
Susceptibilities were determined in 96-wells microplates with an inoculum of 2 × 10^5 cfu in 200 μL of MH broth containing two-fold serial dilutions of each antibiotics or compounds. Molecules were tested alone or in combination with other molecules in equimolar ratio. MICs were realized in the absence and in the presence of a membrane permeabilizer, the polymyxine B nonapeptide (PMBN) used at 51.2 mg/L (1/5 or 1/10 of its direct MIC previously determined). Actinonin and ciprofloxacin were used as internal antibiotic reference. […] Each test was systematically performed in triplicate. The average of three independent assays is presented in μg/mL in the respective tables.

The test system of assay [4] is E. faecalis EFA 103.214. The assay is described as follows: MIC, E. faecalis EFA 103.214. Conditions: Enterococcus faecalis, EFA103.214, read-out: MIC E. faecalis EFA 103.214. It is filed as cell-based. A digest of the protocol: as §1
Assay [5] concerns E. coli AG100A (AcrAB- derivative). In words: MIC by microdilution, E. coli AG100A. Type of assay: cell-based. Conditions: for MIC: Escherichia coli, 18 h, read-out: MIC AG100A; for MIC AG100A: with PMBN at 1/5 of its MIC, 18 h at 37 °C, average of three assays. A digest of the protocol:
as §1

Assay [6] has as its system E. coli AG100. The assay is described as follows: MIC by microdilution, E. coli AG100. It is filed as cell-based. Conditions: 18 h at 37 °C, average of three assays; for MIC: Escherichia coli, AG100, without PMBN; for MIC AG100: with PMBN at 1/5 of its MIC. A digest of the protocol: as §1
On the technique in general: In broth dilution the organism is exposed to a series of concentrations in liquid medium.

Assay [7] concerns E. aerogenes Ea294, Ea289 derivative AcrAB-. The assay is described as follows: MIC by microdilution, E. aerogenes Ea294. It is filed as cell-based, Enterobacter aerogenes. Conditions: for MIC Ea294: +PMBN at 1/5 of its MIC, average of three assays; for MIC: Klebsiella aerogenes, 18 h, read-out: MIC Ea294. The gist of the method: as §1
Assay [8] deals with E. aerogenes Ea289, MDR strain. The assay is described as follows: MIC by microdilution, E. aerogenes Ea289. It is filed as cell-based, Enterobacter aerogenes. Conditions: for MIC Ea289: +PMBN at 1/5 of its MIC, average of three assays; for MIC: Klebsiella aerogenes, 18 h, read-out: MIC Ea289. The gist of the method:
as §1

The target of assay [9] is T2, AtPDF1B (Arabidopsis thaliana, UniProt Q9FUZ2).
T2 construct: made in house
T2 sequence (Q9FUZ2 83-273): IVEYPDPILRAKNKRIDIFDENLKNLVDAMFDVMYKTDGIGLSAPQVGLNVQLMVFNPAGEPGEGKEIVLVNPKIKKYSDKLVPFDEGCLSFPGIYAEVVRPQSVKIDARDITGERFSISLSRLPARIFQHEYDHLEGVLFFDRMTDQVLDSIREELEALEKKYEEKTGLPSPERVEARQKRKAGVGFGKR
In words: PDF inhibition, formate dehydrogenase-coupled spectrophotometric assay (AtPDF1B). It is filed as biochemical. Conditions: no pre-incubation, assay initiated by addition of enzyme; 100 nM AtPDF1B; 37 °C.

In assay [10] the target is T2, AtPDF1B. Described as above. Conditions: for IC50 / Ki: 100 nM AtPDF1B; for IC50: 2 mM Fo-Met-Ala-Ser, 10 min pre-incubation at 37 °C; for Ki: PDFI pre-incubated with enzyme 10 min at 37 °C, started by 2 mM Fo-Met-Ala-Ser, read-out: AtPDF1B KI*app; for AtPDF1B KI/KI*app: enhancement potency (slow tight-binding). Type of assay: biochemical. The gist of the method:
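AtPDF1B activity was followed by coupling deformylation to formate dehydrogenase, which converts NAD to NADH, read at 340 nm at 37 °C. The 200 μL mix held 50 mM HEPES-NaOH pH7.5, 12 mM NAD^+, 4.5 U/mL FDH, 1 mM NiCl2 and 100 nM AtPDF1B prediluted with 0.1 mg/mL BSA. Reactions began with 1–6 mM Fo-Met-Ala-Ser. 1/KI*app was the slope of v0/vi versus compound concentration.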

For assay [11], the system named is E. aerogenes Ea298, Ea289 derivative tolC-. In words: MIC by microdilution, E. aerogenes Ea298. It is filed as cell-based, Enterobacter aerogenes. Conditions: Klebsiella aerogenes, 18 h, read-out: MIC Ea298. The gist of the method:
as §1

The target of assay [12] is T3, SaPDF (Streptococcus agalactiae serotype III, UniProt Q8E378, S2A).
T3 construct: the recombinant protein contains all residues of the 204 amino acids mature protein; made in house; host or cells: E. coli Rosetta 2(DE3)pLysS
The assay is described as follows: biochemical. Conditions: SaPDF KI*app, PDFI pre-incubated with enzyme 10 min at 37 °C, started by 2 mM Fo-Met-Ala-Ser; 40 nM SaPDF.

For assay [13], the target named is T3, SaPDF. In words: biochemical. Conditions: for Ki: SaPDF KI, no pre-incubation, assay initiated by addition of enzyme, 40 nM SaPDF, 37 °C. A digest of the protocol: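 FDH-coupled NADH formation followed at 340 nm, 37 °C, in 50 mM HEPES-NaOH pH7.5 with 12 mM NAD+, 1 mM NiCl2; enzyme 40 nM SaPDF, 10 nM EcPDF or 100 nM AtPDF1B, substrate Fo-Met-Ala-Ser 1–6 mM. For KI, enzyme started the reaction without pre-incubation; 1/KI taken as slope of v0/vi versus compound concentration.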

Where [14] appears, read: 10 nM EcPDF, 2 mM Fo-Met-Ala-Ser, 10 min pre-incubation at 37 °C, read-out: IC50 EcPDF.
Where [15] appears, read: EcPDF KI*app, PDFI pre-incubated with enzyme 10 min at 37 °C, started by 2 mM Fo-Met-Ala-Ser, 10 nM EcPDF.
Setting [16] is: EcPDF KI, no pre-incubation, assay initiated by addition of enzyme, 10 nM EcPDF, 37 °C.

T3 sequence (Q8E378 whole entry S2A): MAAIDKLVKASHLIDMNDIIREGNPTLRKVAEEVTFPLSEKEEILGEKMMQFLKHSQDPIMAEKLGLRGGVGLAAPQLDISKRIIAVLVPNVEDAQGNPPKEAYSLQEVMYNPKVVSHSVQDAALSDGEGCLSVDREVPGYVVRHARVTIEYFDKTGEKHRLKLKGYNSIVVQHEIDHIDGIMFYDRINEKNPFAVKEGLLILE
T1 sequence (P0A6K3 whole entry): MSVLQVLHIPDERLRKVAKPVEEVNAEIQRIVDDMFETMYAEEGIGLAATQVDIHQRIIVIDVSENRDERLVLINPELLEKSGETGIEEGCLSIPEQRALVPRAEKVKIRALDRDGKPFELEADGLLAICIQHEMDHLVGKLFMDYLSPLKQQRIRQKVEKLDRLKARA

Turning to `CCCCC(CC(=O)NO)c1nc(C(N)=O)co1` (stereo not shown) [AT007], the half-inhibitory concentration (IC50) in assay [1] (setting [14]) amounted to 740 nM. Moreover, the minimal inhibitory concentration (MIC) in assay [2], in assay [3], in assay [4], in assay [5] and in assay [6] was above 64 µg/mL throughout. In addition, the “MIC AG100A” value in [5] is above 64 µg/mL. In addition, in assay [6], the “MIC AG100” value is above 64 µg/mL.

On to `CCCC[C@H](CC(=O)NO)c1nc(C(=O)N[C@H](C(=O)OC)C(C)C)co1` [AT009], for which the IC50 in assay [1] (setting [14]) stood at 330 nM. In addition, the MIC in assay [2], in [3], in assay [4], in assay [5] and in [6] was above 64 µg/mL each time. The “MIC AG100A” value in assay [5] was above 64 µg/mL. Moreover, the “MIC AG100” value in [6] was above 64 µg/mL.

For `CCCC[C@H](CC(=O)NO)c1nc(C(=O)N[C@H](C(N)=O)C(C)C)co1` [AT010], the IC50 in assay [1] (setting [14]) was determined as 420 nM. The MIC in assay [2], in assay [3], in [4], in [5] and in [6] was above 64 µg/mL each time. Moreover, in assay [5], the “MIC AG100A” value is above 64 µg/mL. For the same compound, in assay [6], the “MIC AG100” value is above 64 µg/mL.

Take `O=C(C[C@@H](CC1CCCC1)c1nc(Cc2coc3ccccc23)no1)NO` [AT019]: the “MIC Ea294” value in assay [7] came out at 2 µg/mL. Further, the MIC was 128 µg/mL in [7]; above 128 µg/mL in assay [8]; 64 µg/mL in assay [11]; 16 µg/mL in assay [5]; above 64 µg/mL in assay [6]. Moreover, the “MIC Ea289” value in assay [8] was 16 µg/mL. The Ki in [9] turned out to be 263 ± 26 nM; in assay [10], 54 ± 2 nM; in [1] (setting [15]), 1.1 ± 0.3 nM; in [1] (setting [16]) it was 76 ± 4 nM; in assay [12] it was 7.5 ± 2 nM; in assay [13], 65 ± 6 nM. Also, the IC50 in assay [10] was determined as 77 ± 5 nM; in assay [1], 6 ± 1 nM; in assay [13] it was 7 ± 1 nM. Besides, in assay [10], the “AtPDF1B KI/KI*app” value is reported as 5. In [1], the “EcPDF KI/KI*app” value is recorded as 69. In addition, the “MIC AG100A” value in assay [5] was found to be 0.5 µg/mL. In addition, the “MIC AG100” value in [6] was 2 µg/mL.

Consider `O=C(C[C@@H](CC1CCCC1)c1nc(Cc2ccc3c(c2)OCO3)no1)NO` [AT020], for which the “MIC Ea294” value in [7] was 8 µg/mL. Further, the MIC in assay [7] is 128 µg/mL; in assay [8], above 128 µg/mL; in [11] it was 128 µg/mL; in assay [5], 16 µg/mL; in assay [6], above 64 µg/mL. The “MIC Ea289” value in assay [8] stood at 32 µg/mL. Moreover, the Ki amounted to 238 ± 30 nM in assay [9]; 123 ± 5 nM in assay [10]; 1.9 ± 0.2 nM in assay [1] (setting [15]); 80 ± 3 nM in assay [1] (setting [16]); 8.5 ± 3 nM in assay [12]; 63 ± 3 nM in assay [13]. Moreover, the IC50 amounted to 119 ± 10 nM in [10], 7 ± 2 nM in [1] and 12 ± 3 nM in [13]. In addition, the “AtPDF1B KI/KI*app” value in [10] is on record as 2. The “EcPDF KI/KI*app” value in assay [1] turned out to be 42. The “MIC AG100A” value in assay [5] was found to be 4 µg/mL. Besides, the “MIC AG100” value in assay [6] is 8 µg/mL.
